Measurements taken from patent EP0420266A2, “Chromene or thiochromene derivatives, process for preparing the same, intermediate therefor, pharmaceutical compositions containing said derivatives and the use of said derivatives” (TANABE SEIYAKU CO., LTD., priority 1989, dated 1991).

Biological target: T1, HMG-CoA reductase (HMGR) (Rattus norvegicus, UniProt P51639)
T1 construct: Microsomes prepared from liver of rats administered with cholestyramine; from tissue
T1 sequence (P51639 1-887): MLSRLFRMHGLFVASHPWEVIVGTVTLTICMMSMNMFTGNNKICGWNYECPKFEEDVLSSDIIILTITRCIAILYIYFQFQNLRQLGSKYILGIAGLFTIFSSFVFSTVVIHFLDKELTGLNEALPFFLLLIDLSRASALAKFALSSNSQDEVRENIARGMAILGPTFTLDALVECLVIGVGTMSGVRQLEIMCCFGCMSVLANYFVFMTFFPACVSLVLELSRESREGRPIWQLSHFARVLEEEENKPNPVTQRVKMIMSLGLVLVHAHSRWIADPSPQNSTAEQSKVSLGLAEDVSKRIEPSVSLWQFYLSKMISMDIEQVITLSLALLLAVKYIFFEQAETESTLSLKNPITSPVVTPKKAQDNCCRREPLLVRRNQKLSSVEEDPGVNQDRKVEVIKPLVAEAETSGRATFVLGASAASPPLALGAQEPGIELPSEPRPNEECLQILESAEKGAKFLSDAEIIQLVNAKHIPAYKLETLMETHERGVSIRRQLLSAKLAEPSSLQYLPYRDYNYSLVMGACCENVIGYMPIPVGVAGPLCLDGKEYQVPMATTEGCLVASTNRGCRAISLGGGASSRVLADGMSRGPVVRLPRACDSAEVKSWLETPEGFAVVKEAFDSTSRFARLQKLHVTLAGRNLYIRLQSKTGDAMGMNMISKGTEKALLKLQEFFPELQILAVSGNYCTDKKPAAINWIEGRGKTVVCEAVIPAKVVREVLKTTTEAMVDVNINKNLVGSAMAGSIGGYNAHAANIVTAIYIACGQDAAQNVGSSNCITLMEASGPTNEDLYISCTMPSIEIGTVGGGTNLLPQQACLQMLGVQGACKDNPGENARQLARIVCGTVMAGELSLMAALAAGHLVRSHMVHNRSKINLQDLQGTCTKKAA
Test: Inhibitory activity against rat hepatic microsomal HMG-CoA reductase (HMGR)
Format: biochemical
Settings: rat liver microsomes, ¹⁴C-HMG-CoA substrate, 10 minutes incubation
Description: Experiment [Inhibitory Activity against Rat Hepatic Microsomal HMG-CoA reductase (HMGR)]
HMGR activities of microsomes were measured in accordance with the method of N. L. Young et al., Methods in Enzymology, 71, 498 (1981).
Microsomes prepared from liver of rats administered with cholestyramine were mixed with a solution of the compounds to be tested in dimethyl sulfoxide and ¹⁴C-HMG-CoA (substrate). After the mixture was incubated for 10 minutes, the reaction was quenched with 6N hydrochloric acid and the mixture was allowed to stand at 37°C for 15 minutes, followed by centrifugation. The supernatant was spotted on thin layer chromatography (TLC; Kieselgel 60F254 manufactured by Merck) and developed with toluene/acetone (1:1). The spot of ¹⁴C-mevalonolactone was collected and the amount of isotope was measured with a scintillation counter (Type 4640 TRI-CARB. manufactured by Paccard) to calculate an amount of the formed mevalonolactone. By comparing amounts of the formed mevalonolactone in the group treated with test compounds and the control group (without test compounds), HMGR activity inhibition rates of the test compounds were calculated.

Compound | HMGR Inhibition (%) (Conc. of Compounds 10⁻⁶ M) | HMGR Inhibition (%) (Conc. of Compounds 10⁻⁷ M)
CCC1(CC)Oc2ccccc2C(c2ccc(F)cc2)=C1/C=C/[C@@H](O)C[C@@H](O)CC(=O)[O-].[Na+] (relative stereo) [A, (3R*,5S*)-(E)-7-[4-(4-Fluorophenyl)-2,2-diethyl-2H-chromen-3-yl]-3,5-dihydroxy-6-heptenoic acid sodium salt] | 100 | 67
CCC1(CC)Oc2ccccc2C(c2ccc(F)cc2)=C1/C=C/[C@H]1C[C@H](O)CC(=O)O1 (relative stereo) [B, Trans-(E)-6-[2-(4-(4-fluorophenyl)-2,2-diethyl-2H-chromen-3-yl)-1-ethenyl]-3,4,5,6-tetrahydro-4-hydroxy-2H-pyran-2-one] | 84 | 32
CCC1(CC)Sc2ccccc2C(c2ccc(F)cc2)=C1/C=C/[C@@H](O)C[C@@H](O)CC(=O)[O-].[Na+] (relative stereo) [C, (+)-(3R*,5S*)-(E)-7-[4-(4-Fluorophenyl)-2,2-diethyl-2H-thiochromen-3-yl]-3,5-dihydroxy-6-heptenoic acid sodium salt] | 90 | 45
